For `CC1=C(C(=O)O)N2C(=O)C(NC(=O)C(NC(=O)c3nn(-c4ccccc4)c(=O)[nH]c3=O)c3ccccc3)C2SC1` (centres undefined), the log partition coefficient (logP) is 3.19.

`CC1=C(C(=O)O)N2C(=O)C(NC(=O)C(NC(=O)c3nn(-c4ccc(Cl)cc4)c(=O)[nH]c3=O)c3ccccc3)C2SC1` (centres undefined) returned a log partition coefficient (logP) of 4.91.

As for `CC1=C(C(=O)O)N2C(=O)C(NC(=O)C(NC(=O)c3nn(-c4ccc(C)cc4)c(=O)[nH]c3=O)c3cccc(O)c3)C2SC1` (centres undefined), the log partition coefficient (logP) was found to be 2.53.

In turn, `CC1=C(C(=O)O)N2C(=O)C(NC(=O)C(NC(=O)c3nn(-c4ccc(Cl)cc4Cl)c(=O)[nH]c3=O)c3ccccc3)C2SC1` (centres undefined) returned a logP of 4.97.

The compound `CC1=C(C(=O)O)N2C(=O)C(NC(=O)C(NC(=O)c3nn(-c4ccc([N+](=O)[O-])cc4)c(=O)[nH]c3=O)c3ccccc3)C2SC1` (centres undefined) came in with a log partition coefficient (logP) of 3.15.

Take `CCOc1ccc(-n2nc(C(=O)NC(C(=O)NC3C(=O)N4C(C(=O)O)=C(C)CSC34)c3ccccc3)c(=O)[nH]c2=O)cc1` (centres undefined): the logP amounted to 5.16.

With `CC1=C(C(=O)O)N2C(=O)C(NC(=O)C(NC(=O)c3nn(-c4ccc(F)c(Cl)c4)c(=O)[nH]c3=O)c3ccc(O)cc3)C2SC1` (centres undefined), the log partition coefficient (logP) is 3.1.

For the compound `CC1=C(C(=O)O)N2C(=O)[C@@H](NC(=O)[C@H](NC(=O)c3nn(-c4ccccc4)c(=O)[nH]c3=O)c3ccc(O)cc3)[C@H]2SC1`, the logP is 1.26.

With `COc1ccc(-n2nc(C(=O)NC(C(=O)NC3C(=O)N4C(C(=O)O)=C(C)CSC34)c3ccccc3)c(=O)[nH]c2=O)cc1` (centres undefined), the lipophilicity (logP) turned out to be 3.87.

With `CC(=O)c1ccc(-n2nc(C(=O)NC(C(=O)NC3C(=O)N4C(C(=O)O)=C(C)CSC34)c3ccccc3)c(=O)[nH]c2=O)cc1` (centres undefined), the logP stood at 2.71.

`CC1=C(C(=O)O)N2C(=O)C(NC(=O)C(NC(=O)c3nn(-c4ccc(Cl)cc4Cl)c(=O)[nH]c3=O)c3ccc(O)cc3)C2SC1` (centres undefined) registered a logP of 3.08.

Compound `CC(=O)c1ccc(-n2nc(C(=O)NC(C(=O)NC3C(=O)N4C(C(=O)O)=C(C)CSC34)c3cccc(O)c3)c(=O)[nH]c2=O)cc1` (centres undefined) gave a log partition coefficient (logP) of -0.04.

Consider `CC1=C(C(=O)O)N2C(=O)C(NC(NC(=O)c3nn(-c4ccc(S(N)(=O)=O)cc4)c(=O)[nH]c3=O)c3ccc(O)cc3)C2SC1` (centres undefined), for which the logP was -0.39.

The compound `CC1=C(C(=O)O)N2C(=O)C(NC(=O)C(NC(=O)c3nn(-c4ccc(C)cc4)c(=O)[nH]c3=O)c3ccccc3)C2SC1` (centres undefined) displayed a logP of 4.8.

(Values after the SangsterLogP compilation.)
